Experimental data published in patent US20230310636A1, “COMBINATION THERAPIES FOR TREATMENT OF CANCER WITH THERAPEUTIC BINDING MOLECULES” (MedImmune Limited, priority 2022, published 2023).

Experiments:
[1] = tested on: MDA-MB-468 breast cancer xenografts; experiment: MDA-MB-468 breast cancer xenograft, ADC with AZD5305; type: in vivo, mice; details: AZD5305 individually, 0.1 mg/kg and 1 mg/kg, once daily oral, 28 days; FIG. 7
Procedure: MDA-MB-468 cells were injected 5×10^6 per mouse into the mammary fat pad of female CB-17 SCID mice. […] Tumor and body weight measurements were recorded twice weekly for the duration of the study.
All animal experiments were conducted in a facility accredited by the Association for Assessment and Accreditation of Laboratory Animal Care under the guidelines of AstraZeneca's Institutional Animal Care and Use Committee and appropriate animal research approvals. Cell line xenograft models were established through subcutaneous implantation of cells in 50% Matrigel (Corning, Corning, NY, USA) in either the right mammary fat pad (MX-1, MDA-MB-468) or left flank (HT29, HT29-huB7-H4) of female CB-17 mice (Envigo, Frederick, MD, USA). When tumor volume reached 150-200 mm^3, mice were randomized and given a single intravenous (IV) injection of vehicle control (20 mM histidine, pH 6; 240 mM sucrose; 0.02% PS-80) or ADCs. Body weight and tumor measurements were determined once or twice weekly, and tumor volume was calculated with the formula

[2] = preclinical models; cited from earlier work

In the case of CCc1cc2ncc(CN3CCN(c4ccc(C(=O)NC)nc4)CC3)cc2[nH]c1=O [AZD5305, 5-[4-[(7-ethyl-6-oxo-5H-1,5-naphthyridin-3-yl)methyl]piperazin-1-yl]-N-methyl-pyridine-2-carboxamide], the “anti-tumor activity in vivo (tumor size over time)” value [1] is listed as “little to no anti-tumor activity” and the “hematological toxicity in comparison with non-selective PARPi” value [2] is listed as “reduced hematological toxicity”.
